From PubChem BioAssay AID179 (DTP/NCI, 2004)
Calls of active or inactive are those of the source.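 Rule for the calls: active = compounds giving half or more protection of infected cells from virus-caused growth loss, again on retest; inactive = the rest.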 Where a SMILES comes first, the peptide text is derived from it. The star is where a group is joined. Cbz = O=C(OCc1ccccc1)*; OtBu = CC(C)(C)O*

Test system: CEM cells HIV-1 protection, formazan growth assay
Assay: NCI AIDS Antiviral Assay
Conditions: for IC50: measured here: growth of uninfected CEM cells
Summary of the method: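 Category rules: moderately active means at least 50% protection on retest, and confirmed active means 100% protection reproducibly. The underlying data came from a formazan growth assay in HIV-1-infected CEM cells.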

Row | Compound | EC50 [µM] | IC50 [µM] | outcome
1 | CC(C)CC(NC(=O)C(Cc1ccccc1)NC(=O)C1CCCN1C(=O)OCc1ccccc1)C(=O)OC(C)(C)C (stereo not drawn) (Cbz-Pro-Phe-Leu-OtBu; configuration not given here) | > 6.61 | > 6.61 | 
2 | Cc1ccc(NC(=S)NNC(=O)c2cc(-c3ccccc3)nc3ccccc23)cc1 | > 200 | 12.9 | 
3 | N/C(=N\N=C\c1ccc2c(c1)OCO2)NO | > 200 | 105 | 
4 | CC(C)=CCc1c(O)c(CC2=C(O)C(C)=C(O)C(CC=C(C)C)(C(=O)C(C)C)C2=O)c(O)c(C(=O)C(C)C)c1O (configuration not stated) | > 100 | 4.57 | 
5 | N/C(=N\N=C\c1ccc(C(F)(F)F)cc1)NO | > 427 | > 427 | 
6 | O=C1/C(=C/c2ccc(Cl)cc2)CCC/C1=C\c1ccc(O)c(CN2CCCCC2)c1 | > 100 | 5.25 | 
7 | CC(C)(C)C(=O)C1CC(=O)c2ccccc2C1=O (configuration not stated) | > 29.5 | > 29.5 | 
8 | CN=C(Nn1cnnc1)OC | > 200 | > 200 | 
9 | O=C(C1OC1c1ccc(O)cc1)C12CC3CC(CC(C3)C1)C2 (configuration not stated) | > 200 | 52.5 | 
10 | [O-]c1c(-c2cccc3ccccc23)sc(-c2cccc3ccccc23)[n+]1-c1ccccc1 |  |  | inactive
11 | COc1cc(C(C2=C(O)c3ccccc3C(=O)C2=O)C2=C(O)c3ccccc3C(=O)C2=O)cc(Br)c1O | > 200 | 32.4 | 
12 | O=c1cc(Cl)c(=O)n(-c2ccccc2)[nH]1 | > 1120 | 1070 | 
13 | Cc1ccc(S(=O)(=O)N/N=C(\c2nc3ccc([N+](=O)[O-])cc3[nH]c2=O)C(O)c2ccccc2Cl)cc1 (configuration not stated) |  |  | inactive
14 | CC(=O)Oc1c(Cl)cc(C(=CCC[C@H]2CC[C@@]3(C)[C@@H](CC[C@@H]4[C@@H]3CC[C@]3(C)[C@@H](C(C)CCCC(C)C)CC[C@@H]43)C2)c2cc(Cl)c(OC(C)=O)c(C(=O)OCc3ccccc3)c2)cc1C(=O)OCc1ccccc1 (some centres not stated) | > 200 | > 200 | 
15 | CCOC(=O)c1c(N)n(-c2ccccc2)c(=O)n(-c2ccccc2)c1=O | > 708 | 372 | 
16 | CC(C)(C)OC(=O)NC(Cc1ccc(O)cn1)C(=O)O (configuration not stated) | > 200 | > 200 | 
17 | CC(=O)Oc1ccc2c(c1)O/C(=C\c1ccc(O)cc1)C2=O | > 200 | 138 | 
18 | CC(=O)N(CN1C(=O)CCC1C(=O)O)c1ccc(C)cc1 (configuration not stated) |  |  | inactive
19 | C1=Cc2cccc3occ(c23)C=C1 | > 200 | 28.8 | 
20 | CCCCC1C=Cn2c(=O)oc3c(OC(C)C)c(OC(C)C)c(O)c1c32 (configuration not stated) | > 200 | 13.2 | 
21 | CCCCCC[C@@H]1CCC2C(CO)[C@@H](O)CC[C@@H]2C1 (some centres not stated) | > 37.2 | 28.2 | 
22 | O=CN(SSN(C=O)C1CCCCC1)C1CCCCC1 |  |  | inactive

Row | Compound | EC50 [µM] | IC50 [µM] | outcome
23 | O=C1OCCC12CN(Cc1ccccc1)N=N2 (configuration not stated) | > 200 | > 200 | 
24 | Nc1c(S(=O)(=O)c2ccc(Cl)cc2)c2nc3ccccc3nc2n2ccnc12 | 151 | > 200 | 
25 | O=CNNC(=O)Nc1ccc(Cl)cc1 | > 200 | > 200 | 
26 | Cc1cc(-c2ccc(N=Nc3c(N)c(C)cc(S(=O)(=O)O)c3N)c(C)c2)ccc1N=Nc1ccc(O)c(C(=O)O)c1 | 126 | > 200 | 
27 | Fc1ccc(N=NN2CCCC2)cc1 | > 200 | 123 | 
28 | CC(=O)Nc1ccc(C(=O)NN2C(=O)C(Cl)C2c2ccc(O)cc2)cc1 (configuration not stated) | > 200 | > 200 | 
29 | CC(=O)Nc1ccc(S(=O)(=O)NNC(=O)NNS(=O)(=O)c2ccc(NC(C)=O)cc2)cc1 | > 7.41 | > 7.41 | 
30 | O=C1c2c(O)cc(O)cc2OC(c2ccc(O)c(O)c2)C1O (configuration not stated) | > 200 | > 200 | 
31 | CC1CN=C(Nc2ccc(F)c(Cl)c2)S1 (configuration not stated) | > 200 | 132 | 
32 | CSc1cc(Cl)c(C)cc1S(=O)(=O)n1cc[nH]c1=O | > 200 | > 200 | 
33 | C(=C\c1ccccc1)/COc1ccccc1C(N1CCOCC1)n1nc2ccccc2n1 (configuration not stated) | > 200 | 6.76 | 
34 | O=C(c1ccccc1)C(c1ccccc1)C1(O)C(=O)Nc2ccc(Br)cc21 (configuration not stated) | > 85.1 | > 85.1 | 
35 | CC1(C)OC2OC(C(COC(=O)c3ccccc3)OC(=O)c3ccccc3)C(F)C2O1 (configuration not stated) | > 43.7 | > 43.7 | 
36 | O=C(CC(=O)c1ccc([N+](=O)[O-])cc1)C(=O)Nc1nccs1 | > 186 | 155 | 
37 | Clc1ccc(COC(Cn2ccnc2)c2ccc(Cl)cc2Cl)c(Cl)c1 (configuration not stated) | > 200 | 14.1 | 
38 | CC1CC[C@]2(C(=O)O)CCC3(COC(=O)/C=C\c4ccc(O)cc4)C(=CCC4[C@@]5(C)CC[C@H](O)C(C)(C)C5CC[C@]43C)[C@@H]2[C@H]1C (some centres not stated) | > 41.7 | 11 | 
39 | COc1ccc(-c2nc3ccccc3c(=S)n2OC(C)=O)cc1 | > 200 | 1.7 | 
40 | CC(C)C(OC(=O)c1cc(NC(=S)c2ccccc2)ccc1Cl)C(C)C | 0.437 | 11.7 | 
41 | Cn1c(=O)c2c(nc3n2CCCC(=O)N3CC(O)CCl)n(C)c1=O (configuration not stated) | > 200 | 85.1 | 
42 | COc1ccc(-c2csc3c2-n2cccc2C3=O)cc1 | > 2 | 0.0363 | 
43 | CC(=O)c1c2c(cc3c1CC1(C3)Cc3cc4c(c(C(=O)O)c3C1)CCC4)CCC2 (configuration not stated) | > 18.6 | > 18.6 | 
